Like-named read-outs stand apart in the source and are kept apart here.
Assays:
morningglory = experiment: Test C pre-/postemergence herbicide test; type: in vivo, Ipomoea coccinea
Method in brief: (§1)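 Plants grown and held in a greenhouse for 13 to 15 days post-spray, then rated 0–100 by visual comparison with controls. Pre treatments targeted seeds in loam and sand; post treatments targeted 1- to 4-leaf plants in peat-based potting medium.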

corn [1] = experiment: Test C pre-/postemergence herbicide test; type: in vivo, Zea mays
Method in brief: as §1

nutsedge, yellow = experiment: Test C pre-/postemergence herbicide test; type: in vivo, Cyperus esculentus
Method in brief: as §1

lambsquarters = experiment: Test C pre-/postemergence herbicide test; type: in vivo, Chenopodium album
Method in brief: as §1

ragweed = experiment: Test C pre-/postemergence herbicide test; type: in vivo, Ambrosia elatior
Method in brief: as §1

johnsongrass = experiment: Test C pre-/postemergence herbicide test; type: in vivo, Sorghum halepense
Method in brief: as §1

wheat = experiment: Test A pre-/postemergence herbicide test; type: in vivo, Triticum aestivum; conditions: Postemergence; for Wheat plant response rating (0 to 100 scale, 0 is no effect, 100 is complete control): 500 g ai/ha
Method in brief: (§2)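 Approximately 10 days after treatment in the greenhouse, plants were compared with untreated controls and given a 0–100 visual injury rating. Applications: preemergence directed soil spray; postemergence on 2–10 cm plants at the one- to two-leaf stage.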

ryegrass, Italian = experiment: Test C pre-/postemergence herbicide test; type: in vivo, Lolium multiflorum
Method in brief: as §1

pigweed = experiment: Test A pre-/postemergence herbicide test; type: in vivo, Amaranthus retroflexus
Method in brief: as §2

corn [2] = experiment: Test A pre-/postemergence herbicide test; type: in vivo, Zea mays; conditions: Postemergence; for Corn plant response rating (0 to 100 scale, 0 is no effect, 100 is complete control): 500 g ai/ha
Method in brief: as §2

[3] = Postemergence, 31 g ai/ha, scale 0 to 100 (0 no effect, 100 complete control)
[4] = Postemergence, 62 g ai/ha, scale 0 (no effect) to 100 (complete control)
[5] = Postemergence, 125 g ai/ha, scale 0 to 100 (0 no effect, 100 complete control)
[6] = Postemergence, 250 g ai/ha, scale 0 to 100 (0 no effect, 100 complete control)
[7] = Preemergence, 31 g ai/ha, scale 0 to 100, 0 is no effect and 100 is complete control
[8] = Preemergence, 62 g ai/ha, scale 0 to 100 (0 no effect, 100 complete control)
[9] = Preemergence, 125 g ai/ha, scale 0 to 100 (0 no effect, 100 complete control)
[10] = 125 g ai/ha, 0 to 100 scale, 0 is no effect, 100 is complete control

O=C1NC[C@H](c2cccc(C(F)(F)F)c2)[C@H]1C(=O)Nc1ccccc1F [Compound 204, (3R,4S)—N-(2-fluorophenyl)-2-oxo-4-[3-(trifluoromethyl)phenyl]-3-pyrrolidinecarboxamide]
Plant response rating, Morningglory (morningglory; [3]): 5 | Plant response rating, Morningglory (morningglory; [4]): 5 | Plant response rating, Morningglory (morningglory; [5]): 15 | Plant response rating, Morningglory (morningglory; [6]): 35 | Morningglory plant response rating (morningglory; [7]): 0 | Morningglory plant response rating (morningglory; [8]): 0 | Plant response rating, Morningglory (morningglory; [9]): 20 | Plant response rating (scale of 0 to 100), Morningglory (morningglory; Preemergence, 250 g ai/ha): 40 | Plant response rating, Corn (corn [1]; [3]): 0 | Plant response rating, Corn (corn [1]; [4]): 0 | Plant response rating, Corn (corn [1]; [5]): 0 | Plant response rating, Corn (corn [1]; [6]): 40 | Corn plant response rating (corn [1]; [7]): 45 | Corn plant response rating (corn [1]; [8]): 25 | Plant response rating, Corn (corn [1]; [9]): 55 | Plant response rating (scale of 0 to 100), Corn (corn [1]; Preemergence, 250 g ai/ha): 75 | Plant response rating, Nutsedge, Yellow (nutsedge, yellow; [3]): 0 | Plant response rating, Nutsedge, Yellow (nutsedge, yellow; [4]): 0 | Plant response rating, Nutsedge, Yellow (nutsedge, yellow; [5]): 0 | Plant response rating, Nutsedge, Yellow (nutsedge, yellow; [6]): 0 | Nutsedge, Yellow plant response rating (nutsedge, yellow; [7]): 0 | Nutsedge, Yellow plant response rating (nutsedge, yellow; [8]): 0 | Plant response rating, Nutsedge, Yellow (nutsedge, yellow; [9]): 0 | Plant response rating (scale of 0 to 100), Nutsedge, Yellow (nutsedge, yellow; Preemergence, 250 g ai/ha): 0 | Plant response rating, Lambsquarters (lambsquarters; [3]): 35 | Plant response rating, Lambsquarters (lambsquarters; [4]): 65 | Plant response rating, Lambsquarters (lambsquarters; [5]): 75 | Plant response rating, Lambsquarters (lambsquarters; [6]): 30 | Lambsquarters plant response rating (lambsquarters; [7]): 100 | Lambsquarters plant response rating (lambsquarters; [8]): 100 | Plant response rating, Lambsquarters (lambsquarters; [9]): 75 | Plant response rating (scale of 0 to 100), Lambsquarters (lambsquarters; Preemergence, 250 g ai/ha): 100 | Plant response rating, Ragweed (ragweed; [3]): 0 | Plant response rating, Ragweed (ragweed; [4]): 0 | Plant response rating, Ragweed (ragweed; [5]): 0 | Plant response rating, Ragweed (ragweed; [6]): 0 | Ragweed plant response rating (ragweed; [7]): 30 | Ragweed plant response rating (ragweed; [8]): 30 | Plant response rating, Ragweed (ragweed; [9]): 100 | Plant response rating (scale of 0 to 100), Ragweed (ragweed; Preemergence, 250 g ai/ha): 65 | Plant response rating, Johnsongrass (johnsongrass; [3]): 0 | Plant response rating, Johnsongrass (johnsongrass; [4]): 0 | Plant response rating, Johnsongrass (johnsongrass; [5]): 0 | Plant response rating, Johnsongrass (johnsongrass; [6]): 0 | Johnsongrass plant response rating (johnsongrass; [7]): 10 | Johnsongrass plant response rating (johnsongrass; [8]): 40 | Plant response rating, Johnsongrass (johnsongrass; [9]): 75 | Plant response rating (scale of 0 to 100), Johnsongrass (johnsongrass; Preemergence, 250 g ai/ha): 85 | Wheat plant response rating (0 to 100 scale, 0 is no effect, 100 is complete control) (wheat): 80 | plant injury at 125 g/ha (wheat; Triticum aestivum, post-emergence, 240 h, 125 g ai/ha, 0 to 100 scale, 0 is no effect, 100 is complete control, read-out: Plant response rating, Wheat): 60% | Plant response rating, Ryegrass, Italian (ryegrass, Italian; [3]): 0 | Plant response rating, Ryegrass, Italian (ryegrass, Italian; [4]): 0 | Plant response rating, Ryegrass, Italian (ryegrass, Italian; [5]): 0 | Plant response rating, Ryegrass, Italian (ryegrass, Italian; [6]): 15 | Ryegrass, Italian plant response rating (ryegrass, Italian; [7]): 0 | Ryegrass, Italian plant response rating (ryegrass, Italian; [8]): 0 | Plant response rating, Ryegrass, Italian (ryegrass, Italian; [9]): 50 | Plant response rating (scale of 0 to 100), Ryegrass, Italian (ryegrass, Italian; Preemergence, 250 g ai/ha): 30 | pest or weed control at 125 g/ha (pigweed; Amaranthus retroflexus, post-emergence, 240 h, Postemergence, 125 g ai/ha, 0 to 100 scale, 0 is no effect, 100 is complete control, read-out: Plant response rating, Pigweed): 0% | pest or weed control at 125 g/ha (pigweed; Amaranthus retroflexus, pre-emergence, 240 h, 125 g ai/ha, visual rating, 0 to 100 scale, 0 no effect, 100 complete control, approximately 10 days, read-out: Plant response rating, Pigweed): 0% | pest or weed control at 500 g/ha (pigweed; Amaranthus retroflexus, pre-emergence, 240 h, preemergence, 500 g ai/ha, 0 to 100 scale, 0 is no effect and 100 is complete control, read-out: Plant response rating, Pigweed): 50% | Pigweed plant response rating (0 to 100 scale, 0 is no effect, 100 is complete control) (pigweed; Postemergence, 500 g ai/ha): 20 | Corn plant response rating (0 to 100 scale, 0 is no effect, 100 is complete control) (corn [2]): 80 | Corn plant response rating (crop injury, 0 = no effect, 100 = complete kill) at 125 g/ha (corn [2]; Zea mays, post-emergence, 240 h, 125 g ai/ha, 0 to 100 scale, 0 is no effect, 100 is complete control): 60%

O=C1NC[C@H](c2cccc(C(F)(F)F)c2)[C@H]1C(=O)Nc1cccc(F)c1F [Compound 206]
Plant response rating, Morningglory (morningglory; [3]): 20 | Plant response rating, Morningglory (morningglory; [4]): 20 | Plant response rating, Morningglory (morningglory; [5]): 35 | Plant response rating, Morningglory (morningglory; [6]): 45 | Morningglory plant response rating (morningglory; [7]): 0 | Morningglory plant response rating (morningglory; [8]): 0 | Plant response rating, Morningglory (morningglory; [9]): 0 | Plant response rating (scale of 0 to 100), Morningglory (morningglory; Preemergence, 250 g ai/ha): 10 | Plant response rating, Corn (corn [1]; [3]): 0 | Plant response rating, Corn (corn [1]; [4]): 0 | Plant response rating, Corn (corn [1]; [5]): 30 | Plant response rating, Corn (corn [1]; [6]): 50 | Corn plant response rating (corn [1]; [7]): 30 | Corn plant response rating (corn [1]; [8]): 60 | Plant response rating, Corn (corn [1]; [9]): 65 | Plant response rating (scale of 0 to 100), Corn (corn [1]; Preemergence, 250 g ai/ha): 60 | Plant response rating, Nutsedge, Yellow (nutsedge, yellow; [3]): 0 | Plant response rating, Nutsedge, Yellow (nutsedge, yellow; [4]): 20 | Plant response rating, Nutsedge, Yellow (nutsedge, yellow; [5]): 0 | Plant response rating, Nutsedge, Yellow (nutsedge, yellow; [6]): 0 | Nutsedge, Yellow plant response rating (nutsedge, yellow; [7]): 0 | Nutsedge, Yellow plant response rating (nutsedge, yellow; [8]): 0 | Plant response rating, Nutsedge, Yellow (nutsedge, yellow; [9]): 0 | Plant response rating (scale of 0 to 100), Nutsedge, Yellow (nutsedge, yellow; Preemergence, 250 g ai/ha): 0 | Plant response rating, Lambsquarters (lambsquarters; [3]): 50 | Plant response rating, Lambsquarters (lambsquarters; [4]): 75 | Plant response rating, Lambsquarters (lambsquarters; [5]): 10 | Plant response rating, Lambsquarters (lambsquarters; [6]): 20 | Lambsquarters plant response rating (lambsquarters; [7]): 75 | Lambsquarters plant response rating (lambsquarters; [8]): 100 | Plant response rating, Lambsquarters (lambsquarters; [9]): 100 | Plant response rating (scale of 0 to 100), Lambsquarters (lambsquarters; Preemergence, 250 g ai/ha): 100 | Plant response rating, Ragweed (ragweed; [3]): 5 | Plant response rating, Ragweed (ragweed; [4]): 0 | Plant response rating, Ragweed (ragweed; [5]): 25 | Plant response rating, Ragweed (ragweed; [6]): 5 | Ragweed plant response rating (ragweed; [7]): 80 | Ragweed plant response rating (ragweed; [8]): 10 | Plant response rating, Ragweed (ragweed; [9]): 70 | Plant response rating (scale of 0 to 100), Ragweed (ragweed; Preemergence, 250 g ai/ha): 98 | Plant response rating, Johnsongrass (johnsongrass; [3]): 0 | Plant response rating, Johnsongrass (johnsongrass; [4]): 0 | Plant response rating, Johnsongrass (johnsongrass; [5]): 0 | Plant response rating, Johnsongrass (johnsongrass; [6]): 35 | Johnsongrass plant response rating (johnsongrass; [7]): 25 | Johnsongrass plant response rating (johnsongrass; [8]): 65 | Plant response rating, Johnsongrass (johnsongrass; [9]): 85 | Plant response rating (scale of 0 to 100), Johnsongrass (johnsongrass; Preemergence, 250 g ai/ha): 85 | Plant response rating, Wheat (wheat; [10]): 70 | Wheat plant response rating (0 to 100 scale, 0 is no effect, 100 is complete control) (wheat): 80 | Plant response rating, Ryegrass, Italian (ryegrass, Italian; [3]): 0 | Plant response rating, Ryegrass, Italian (ryegrass, Italian; [4]): 0 | Plant response rating, Ryegrass, Italian (ryegrass, Italian; [5]): 10 | Plant response rating, Ryegrass, Italian (ryegrass, Italian; [6]): 35 | Ryegrass, Italian plant response rating (ryegrass, Italian; [7]): 30 | Ryegrass, Italian plant response rating (ryegrass, Italian; [8]): 40 | Plant response rating, Ryegrass, Italian (ryegrass, Italian; [9]): 45 | Plant response rating (scale of 0 to 100), Ryegrass, Italian (ryegrass, Italian; Preemergence, 250 g ai/ha): 20 | Plant response rating, Pigweed (pigweed; 125 g ai/ha, visual rating, 0 to 100 scale, 0 no effect, 100 complete control, approximately 10 days, preemergence): 30 | Plant response rating, Pigweed (pigweed; Postemergence, 125 g ai/ha, 0 to 100 scale, 0 is no effect, 100 is complete control): 50 | Pigweed plant response rating (0 to 100 scale, 0 is no effect, 100 is complete control) (pigweed; Postemergence, 500 g ai/ha): 70 | Plant response rating, Pigweed (pigweed; preemergence, 500 g ai/ha, 0 to 100 scale, 0 is no effect and 100 is complete control): 80 | Plant response rating, Corn (corn [2]; [10]): 60 | Corn plant response rating (0 to 100 scale, 0 is no effect, 100 is complete control) (corn [2]): 80

Source: patent publication US10294202B2, “Pyrrolidinones as herbicides” (FMC Corporation, priority 2013, dated 2019)
